Results: paper PMC9005681, “Use of AD Informer Set compounds to explore validity of novel targets in Alzheimer's disease pathology” (Alzheimer's & Dementia : Translational Research & Clinical …, 2022)
Where “and” joins values, the source holds several entries; their conditions need not be identical. Equal values may be shown once. Blank lines part the entries; values can stand above or below the compound they belong to.

Legend:
Test in all cases: PDSP GPCR panel primary binding assays at 10 μM
Conditions in all cases: primary assay
[1] = target: T1, cloned human or rodent CNS receptors, channels, and transporters (PDSP panel) (Homo sapiens, UniProt P08172)
T1 construct: expressed in transfected cells
T1 sequence (P08172 1-466): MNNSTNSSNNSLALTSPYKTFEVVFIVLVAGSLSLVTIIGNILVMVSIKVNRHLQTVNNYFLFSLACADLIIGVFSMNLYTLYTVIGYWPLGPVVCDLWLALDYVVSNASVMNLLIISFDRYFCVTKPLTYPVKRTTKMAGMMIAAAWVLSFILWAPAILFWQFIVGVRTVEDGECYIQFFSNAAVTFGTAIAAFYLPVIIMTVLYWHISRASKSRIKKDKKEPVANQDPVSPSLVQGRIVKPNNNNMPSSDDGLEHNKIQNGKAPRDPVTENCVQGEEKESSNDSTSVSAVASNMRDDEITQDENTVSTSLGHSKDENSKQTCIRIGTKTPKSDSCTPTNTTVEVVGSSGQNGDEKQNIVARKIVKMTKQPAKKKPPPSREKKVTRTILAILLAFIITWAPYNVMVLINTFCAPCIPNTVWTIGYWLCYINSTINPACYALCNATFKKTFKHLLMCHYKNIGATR
Summary of the method: (§1)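 Radioligand displacement at cloned human or rodent CNS targets: 46–47 primary binding assays run in quadruplicate at 10 μM. Targets where the compound displaced an average of >50% of radiolabeled standard ligand went to secondary binding in 11-point dose-response, in triplicate; none run for H3, PBR or GABAA.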

[2] = system: cloned human or rodent CNS receptors, channels, and transporters (PDSP panel)
Summary of the method: as §1

[3] = target: T2, cloned human or rodent CNS receptors, channels, and transporters (PDSP panel) (Homo sapiens, UniProt P35368)
T2 construct: expressed in transfected cells
T2 sequence (P35368 1-520): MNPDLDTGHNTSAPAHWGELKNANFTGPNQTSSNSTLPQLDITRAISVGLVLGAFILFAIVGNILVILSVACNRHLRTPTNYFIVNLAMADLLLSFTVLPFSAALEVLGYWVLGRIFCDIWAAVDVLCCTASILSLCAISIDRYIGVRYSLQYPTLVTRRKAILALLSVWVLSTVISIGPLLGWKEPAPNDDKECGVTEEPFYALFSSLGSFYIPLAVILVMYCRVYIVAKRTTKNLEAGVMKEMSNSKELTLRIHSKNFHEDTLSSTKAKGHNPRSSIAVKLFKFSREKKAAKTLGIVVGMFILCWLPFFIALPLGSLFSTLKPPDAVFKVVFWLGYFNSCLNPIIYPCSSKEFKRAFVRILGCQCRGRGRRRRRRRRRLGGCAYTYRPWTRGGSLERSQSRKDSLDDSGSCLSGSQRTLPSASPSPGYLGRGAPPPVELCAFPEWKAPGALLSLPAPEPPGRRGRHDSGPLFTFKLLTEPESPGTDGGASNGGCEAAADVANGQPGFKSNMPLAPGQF
Summary of the method: as §1

[4] = target: T3, cloned human or rodent CNS receptors, channels, and transporters (PDSP panel) (Homo sapiens, UniProt P21918)
T3 construct: expressed in transfected cells
T3 sequence (P21918 whole entry): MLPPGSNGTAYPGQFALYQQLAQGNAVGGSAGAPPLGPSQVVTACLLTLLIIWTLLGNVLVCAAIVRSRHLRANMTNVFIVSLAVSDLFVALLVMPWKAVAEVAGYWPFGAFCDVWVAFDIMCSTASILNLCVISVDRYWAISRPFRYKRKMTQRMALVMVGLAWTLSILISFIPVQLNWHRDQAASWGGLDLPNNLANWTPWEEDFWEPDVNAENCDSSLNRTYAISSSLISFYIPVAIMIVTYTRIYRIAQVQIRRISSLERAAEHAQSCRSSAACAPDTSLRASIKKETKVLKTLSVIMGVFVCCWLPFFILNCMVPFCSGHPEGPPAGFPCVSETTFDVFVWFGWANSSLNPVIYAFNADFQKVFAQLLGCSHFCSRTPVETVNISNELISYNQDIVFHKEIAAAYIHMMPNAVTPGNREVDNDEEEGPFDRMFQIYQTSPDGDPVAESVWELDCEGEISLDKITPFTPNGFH
Summary of the method: as §1

[5] = target: T4, cloned human or rodent CNS receptors, channels, and transporters (PDSP panel) (Homo sapiens, UniProt P28221)
T4 construct: expressed in transfected cells
T4 sequence (P28221 whole entry): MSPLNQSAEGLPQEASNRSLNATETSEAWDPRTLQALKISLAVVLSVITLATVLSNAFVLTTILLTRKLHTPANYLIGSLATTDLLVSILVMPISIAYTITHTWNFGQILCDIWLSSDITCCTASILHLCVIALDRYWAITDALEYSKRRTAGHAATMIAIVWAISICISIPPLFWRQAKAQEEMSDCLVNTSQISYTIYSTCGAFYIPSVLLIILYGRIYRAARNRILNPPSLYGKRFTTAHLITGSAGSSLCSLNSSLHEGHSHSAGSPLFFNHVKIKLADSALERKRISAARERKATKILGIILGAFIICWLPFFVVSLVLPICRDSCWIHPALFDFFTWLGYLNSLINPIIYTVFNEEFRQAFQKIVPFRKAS
Summary of the method: as §1

[6] = Receptor BZP Rat Brain Site, 10 μM

SMILES: c1cn2cc(-c3ccc4cn[nH]c4c3)nc(Nc3ccc(N4CCOCC4)cc3)c2n1 [UNC10302678A, Entospletinib (GS-9973)]
Inhibition 1 ([1]; Receptor M2, 10 μM): -17.67% | Inhibition 2 ([1]; Receptor M2, 10 μM): -16.44% | Inhibition 3 ([1]; Receptor M2, 10 μM): -12.26% | Inhibition 4 ([1]; Receptor M2, 10 μM): -13.73% | Mean % ([1]; Receptor M2, 10 μM, mean of Inhibition 1-4): -15.03% | Inhibition 1 ([2]; Receptor Alpha1A, 10 μM): -6.64% | Inhibition 2 ([2]; Receptor Alpha1A, 10 μM): -39.37% | Inhibition 3 ([2]; Receptor Alpha1A, 10 μM): -29.27% | Inhibition 4 ([2]; Receptor Alpha1A, 10 μM): -15.24% | Mean % ([2]; Receptor Alpha1A, 10 μM, mean of Inhibition 1-4): -22.63% | Inhibition 1 ([2]; Receptor Alpha2A, 10 μM): -9.73% | Inhibition 2 ([2]; Receptor Alpha2A, 10 μM): -11.16% | Inhibition 3 ([2]; Receptor Alpha2A, 10 μM): -12.52% | Inhibition 4 ([2]; Receptor Alpha2A, 10 μM): 5.61% | Mean % ([2]; Receptor Alpha2A, 10 μM, mean of Inhibition 1-4): -6.95% | Inhibition 1 ([2]; Receptor Alpha2C, 10 μM): 4.82% | Inhibition 2 ([2]; Receptor Alpha2C, 10 μM): 7.15% | Inhibition 3 ([2]; Receptor Alpha2C, 10 μM): 3.37% | Inhibition 4 ([2]; Receptor Alpha2C, 10 μM): 11.76% | Mean % ([2]; Receptor Alpha2C, 10 μM, mean of Inhibition 1-4): 6.78% | Inhibition 1 [2, 6]: 2.63% | Inhibition 2 [2, 6]: -6.94% | Inhibition 3 [2, 6]: -0.59% | Inhibition 4 [2, 6]: 10.21% | Mean % ([2]; Receptor BZP Rat Brain Site, 10 μM, mean of Inhibition 1-4): 1.33% | Inhibition 1 ([2]; Receptor DOR, 10 μM): -7.03% | Inhibition 2 ([2]; Receptor DOR, 10 μM): -15.52% | Inhibition 3 ([2]; Receptor DOR, 10 μM): 1.47% | Inhibition 4 ([2]; Receptor DOR, 10 μM): -11.54% | Mean % ([2]; Receptor DOR, 10 μM, mean of Inhibition 1-4): -8.16% | Inhibition 1 ([2]; Receptor H3, 10 μM): 4.01% | Inhibition 2 ([2]; Receptor H3, 10 μM): 32.57% | Inhibition 3 ([2]; Receptor H3, 10 μM): 40.44% | Inhibition 4 ([2]; Receptor H3, 10 μM): 49.18% | Mean % ([2]; Receptor H3, 10 μM, mean of Inhibition 1-4): 31.55% | Inhibition 1 ([2]; Receptor H4, 10 μM): 40.38% | Inhibition 2 ([2]; Receptor H4, 10 μM): 31.02% | Inhibition 3 ([2]; Receptor H4, 10 μM): 31.26% | Inhibition 4 ([2]; Receptor H4, 10 μM): 64.39% | Mean % ([2]; Receptor H4, 10 μM, mean of Inhibition 1-4): 41.76% | Inhibition 1 ([2]; Receptor Sigma 1, 10 μM): 24.21% | Inhibition 2 ([2]; Receptor Sigma 1, 10 μM): 17.43% | Inhibition 3 ([2]; Receptor Sigma 1, 10 μM): 8.82% | Inhibition 4 ([2]; Receptor Sigma 1, 10 μM): -3.67% | Mean % ([2]; Receptor Sigma 1, 10 μM, mean of Inhibition 1-4): 11.7% | Inhibition 1 ([2]; Receptor Sigma 2, 10 μM): 10.94% | Inhibition 2 ([2]; Receptor Sigma 2, 10 μM): -1.79% | Inhibition 3 ([2]; Receptor Sigma 2, 10 μM): -3.28% | Inhibition 4 ([2]; Receptor Sigma 2, 10 μM): -0.08% | Mean % ([2]; Receptor Sigma 2, 10 μM, mean of Inhibition 1-4): 1.45% | Inhibition 1 ([3]; Receptor Alpha1B, 10 μM): 3.98% | Inhibition 2 ([3]; Receptor Alpha1B, 10 μM): -28.67% | Inhibition 3 ([3]; Receptor Alpha1B, 10 μM): -18.82% | Inhibition 4 ([3]; Receptor Alpha1B, 10 μM): -2.78% | Mean % ([3]; Receptor Alpha1B, 10 μM, mean of Inhibition 1-4): -11.57% | Inhibition 1 ([4]; Receptor D5, 10 μM): 5.49% | Inhibition 2 ([4]; Receptor D5, 10 μM): 5.93% | Inhibition 3 ([4]; Receptor D5, 10 μM): 8.99% | Inhibition 4 ([4]; Receptor D5, 10 μM): 11.03% | Mean % ([4]; Receptor D5, 10 μM, mean of Inhibition 1-4): 7.86% | Inhibition 1 ([5]; Receptor 5-HT1D, 10 μM): 30.71% | Inhibition 2 ([5]; Receptor 5-HT1D, 10 μM): 10.31% | Inhibition 3 ([5]; Receptor 5-HT1D, 10 μM): -25.09% | Inhibition 4 ([5]; Receptor 5-HT1D, 10 μM): 3.23% | Mean % ([5]; Receptor 5-HT1D, 10 μM, mean of Inhibition 1-4): 4.79%

Mean % ([1]; M2, mean inhibition): -9.25% | Inhibition 1 ([1]; M2, replicate 1): -13.73% | Inhibition 2 ([1]; M2, replicate 2): -23.07% | Inhibition 3 ([1]; M2, replicate 3): -14.72% | Inhibition 4 ([1]; M2, replicate 4): 14.53% | Mean % ([2]; Alpha1A, mean inhibition): -0.8% | Inhibition 1 ([2]; Alpha1A, replicate 1): -1.03% | Inhibition 2 ([2]; Alpha1A, replicate 2): -7.95% | Inhibition 3 ([2]; Alpha1A, replicate 3): -14.5% | Inhibition 4 ([2]; Alpha1A, replicate 4): 20.29% | Mean % ([2]; Alpha2A, mean inhibition): -5.79% | Inhibition 1 ([2]; Alpha2A, replicate 1): -3.6% | Inhibition 2 ([2]; Alpha2A, replicate 2): -9.38% | Inhibition 3 ([2]; Alpha2A, replicate 3): -7.24% | Inhibition 4 ([2]; Alpha2A, replicate 4): -2.95% | Mean % ([2]; Alpha2C, mean inhibition): 1.02% | Inhibition 1 ([2]; Alpha2C, replicate 1): 11.32% | Inhibition 2 ([2]; Alpha2C, replicate 2): 1.35% | Inhibition 3 ([2]; Alpha2C, replicate 3): -11.52% | Inhibition 4 ([2]; Alpha2C, replicate 4): 2.93% | Mean % ([2]; BZP Rat Brain Site, mean inhibition): 4.01% | Inhibition 1 ([2]; BZP Rat Brain Site, replicate 1): 13.82% | Inhibition 2 ([2]; BZP Rat Brain Site, replicate 2): 5.95% | Inhibition 3 ([2]; BZP Rat Brain Site, replicate 3): -2.77% | Inhibition 4 ([2]; BZP Rat Brain Site, replicate 4): -0.97% | Mean % ([2]; DOR, mean inhibition): 1.65% | Inhibition 1 ([2]; DOR, replicate 1): 14.12% | Inhibition 2 ([2]; DOR, replicate 2): -1.97% | Inhibition 3 ([2]; DOR, replicate 3): -1.78% | Inhibition 4 ([2]; DOR, replicate 4): -3.77% | Mean % ([2]; GABAA, mean inhibition): -6.38% and -12.1% | Inhibition 1 ([2]; GABAA, replicate 1): -3.42% and -8.72% | Inhibition 2 ([2]; GABAA, replicate 2): -12.29% and -15.74% | Inhibition 3 ([2]; GABAA, replicate 3): -18.95% and -24.39% | Inhibition 4 ([2]; GABAA, replicate 4): 9.15% and 0.47% | Mean % ([2]; H3, mean inhibition): 13.41% | Inhibition 1 ([2]; H3, replicate 1): 10.42% | Inhibition 2 ([2]; H3, replicate 2): 5.17% | Inhibition 3 ([2]; H3, replicate 3): 19.16% | Inhibition 4 ([2]; H3, replicate 4): 18.87% | Mean % ([2]; H4, mean inhibition): -11.7% | Inhibition 1 ([2]; H4, replicate 1): -16.74% | Inhibition 2 ([2]; H4, replicate 2): -15.78% | Inhibition 3 ([2]; H4, replicate 3): -13.62% | Inhibition 4 ([2]; H4, replicate 4): -0.66% | Mean % ([2]; Sigma 1, mean inhibition): 4.17% | Mean % ([2]; Sigma 2, mean inhibition): -5.66% | Mean % ([3]; Alpha1B, mean inhibition): -0.37% | Inhibition 1 ([3]; Alpha1B, replicate 1): -2.21% | Inhibition 2 ([3]; Alpha1B, replicate 2): 6.62% | Inhibition 3 ([3]; Alpha1B, replicate 3): -2.78% | Inhibition 4 ([3]; Alpha1B, replicate 4): -3.12% | Mean % ([4]; D5, mean inhibition): -9.97% | Inhibition 1 ([4]; D5, replicate 1): 0.61% | Inhibition 2 ([4]; D5, replicate 2): -8.1% | Inhibition 3 ([4]; D5, replicate 3): -21.39% | Inhibition 4 ([4]; D5, replicate 4): -11% | Mean % ([5]; 5-HT1D, mean inhibition): 6.14% | Inhibition 1 ([5]; 5-HT1D, replicate 1): 26.13% | Inhibition 2 ([5]; 5-HT1D, replicate 2): 1.56% | Inhibition 3 ([5]; 5-HT1D, replicate 3): 1.56% | Inhibition 4 ([5]; 5-HT1D, replicate 4): -4.69%
SMILES: CNc1nc(C)nc(N[C@H]2CCC[C@@H](C(=O)NCc3ccc(C#N)cc3C(F)(F)F)C2)n1 [UNC10302679A, GSK2256294A]
